Results: patent publication US12551469B2 (priority 2020, dated 2026)

How the values were obtained:
ARDS induced thrombosis = assay: Rat venous stasis (Wessler) model after LPS-induced lung injury (ARDS); type: in vivo, Sprague-Dawley rats
Source text: This study assessed the efficacy of ABC294640 to reduce the incidence of adverse thromboembolic events in situ in acute respiratory distress syndrome (ARDS) conditions using a rat venous stasis model. This assay is designed to measure thrombotic risks following LPS-induced lung injury. LPS-induced lung injury is one of the most commonly used rodent models for ARDS and was described to mimic the neutrophilic inflammatory response observed in ARDS patients. The mechanism of LPS-induced ARDS is based on damage to endothelial cells and a systemic inflammatory response.
The venous stasis (Wessler) test in animals has been used extensively for over 40 years as a laboratory measure for in vivo hypercoagulability.
Test compound was administered by oral gavage 3 hours post-instillation and 24, 48 and 72 hours post-instillation, at a dose of 250 mg/kg. The appropriate amount of LPS from E. coli (O55:B5) was diluted in saline to obtain a final concentration of 400 μg/mL. This solution was given by intratracheal instillation (0.5 mL/kg). The vehicle was composed of PBS pH 7.4±0.1. ABC294640 was weighed and transferred in vehicle (PBS, 0.375%, pH 7.4) to obtain a final solution at 25 mg/mL. ABC294640 solution is stirred for 10 minutes at room temperature prior to dosing. This solution was given by oral gavage (250 mg/kg, 10 mL/kg).
Sprague-Dawley rats (male) weighing between 275 and 400 g were used for this study. Animals were randomly assigned to a treatment group by the Study Director. Food and water were given ad libitum. Observation for behavior and general health status were done until the sacrifice. The body weight was recorded before the instillation and 24, 48 and 72 hours post-instillation.
In this study, ARDS was induced by intratracheal instillation of LPS. Throughout the ARDS induction and development process, animal was dosed by oral gavage with vehicle or ABC294640 (3 h, 24 h, 48 and 72 hours post-instillation). […] The stasis was maintained for 30 minutes. The segment was then excised and its content scored. Subsequently, animal was euthanized by exsanguination.
• 1. Prior LPS or saline instillation, the functional respiratory parameters of all rat was assessed by whole-body plethysmography and SpO2 was evaluated on conscious rat with a collar probe pulse oximeter. Rat was first acclimatized to the plethysmograph chamber prior to the physiological assessment. The respiratory rate, the Penh and the inspiratory/expiratory time measurements was analyzed. • 2. […]
• 5. Rats were evaluated periodically to ensure animal well-being (general behavior and daily body weight). • 6. […] SpO2 and whole-body plethysmography were also evaluated 24, 48 and 72 hours post-instillation. • 8. […] The thrombi was measured, weighed and scored on a scale from 0 to 4 (see Table 2).

[1] = tested on: human bronchial epithelial cells (HBEC); conditions: male
COVID-19 pneumonia = assay: Randomized, double-blind, placebo-controlled Phase 2a study of opaganib in COVID-19 pneumonia; type: in vivo, human
Source text: This was a phase 2a, proof of concept, multi-center randomized double-blind, parallel arm, placebo-controlled study. After informed consent was obtained, patients entered a screening phase for no more than 3 days, to determine eligibility. […] Treatment assignments remained blinded to the patient, investigator and hospital staff, as well as the sponsor. As there was no consensus for a definitive treatment specifically targeting the SARS-CoV-2 virus causing COVID-19 (Wilson, 2020), standard of care referred to regional, institutional or physician directed therapies, that were implemented during the COVID-19 pandemic.
Study drug was to be administered every day for 14 days (Day 1 to Day 14), unless the patient had been discharged from the hospital without requiring supplemental oxygen, in which case study drug would only be administered to Day 10.
Two patients were randomized in each group but not treated. […] Two patients in the opaganib arm experienced adverse events such that study drug was terminated, while one placebo patient was terminated due to an adverse event.
The primary efficacy endpoint calculated for each patient the area under the curve of the supplemental oxygen requirement through day 14, using the trapezoidal rule after subtracting the baseline oxygen requirement at each day. Days where no supplementary oxygen was needed, were recorded as 0. If several values of oxygen requirement (L/min) are recorded in a certain day, for the primary analysis the highest of these values were taken. In the primary analysis, for patients who die before Day 14, or require intubation and mechanical ventilation, missing daily values were assigned the maximal supplemental oxygen flow requirement of 8 L/min. […]
Supplemental oxygen requirement up to Day 14 was collected even if a patient discontinued treatment prior to Day 14 but continued in the study to Day 14. […] A sensitivity analysis to the above missing data handling approach was performed using an AUC summary statistics approach, in which groups AUC is calculated from the estimated parameters of a Repeated-Measures model. […]

[2] = tested on: SARS-CoV-2 clinical isolate (2019-nCoV/USA-WA1/2020); assay: Anti-viral activity against SARS-CoV-2 in HBEC (EpiAirway) ALI cultures, apical viral titer by TCID50 assay; type: cell-based
COVID-19 infection = assay: Pilot / compassionate use study of opaganib in hospitalized patients with COVID-19 pneumonia; type: in vivo, human
Procedure: Patients entered a screening period of up to 1 week. Eligible patients entered the treatment period for up to 2 weeks. All participants were followed for 2 weeks after their last dose of study drug, at the end of the 2 week treatment period, or once they had 2 consecutive daily negative viral swabs for the COVID-19 virus or at after premature drug discontinuation prior to Day 14. The maximum duration of study participation was 35 days […].
Each dose is administered with food or 15-30 minutes after tube-feeding, where appropriate. […] These patients had moderate to severe COVID-19-related pneumonia with hypoxia on supplemental oxygen.
Five patients were included in the analysis, and for comparison purposes, we used a control group with same-sex, same-severity patients (baseline characteristics). Univariate comparisons between the groups were performed with chi-square test for categorical variables and t-test or MannWhitney U-test for continuous variables, as appropriate. Time variables were compared with Cox proportional hazard regression, adjusted for age and background illnesses. CRP and lymphocyte changes were compared utilizing a repeated measures general linear model with a Bonferroni correction for multiple comparison.

O=C(NCc1ccncc1)C12CC3CC(C1)CC(c1ccc(Cl)cc1)(C3)C2 [ABC294640, 3-(4-chlorophenyl)-adamantane-1-carboxylic acid (pyridin-4-ylmethyl)amide]
blood clot length (ARDS induced thrombosis; 250 mg/kg oral gavage): reduction
blood clot weight (ARDS induced thrombosis; 250 mg/kg oral gavage): reduction
thrombosis (ARDS induced thrombosis; 250 mg/kg oral gavage 3, 24, 48, 72 h post LPS instillation, 30 min stasis): reduction of thrombosis
total thrombus score (ARDS induced thrombosis; 250 mg/kg oral gavage, score 0 to 4): reduction

Cl.O=C(NCc1ccncc1)C12CC3CC(C1)CC(c1ccc(Cl)cc1)(C3)C2 [opaganib, 3-(4-chlorophenyl)-adamantane-1-carboxylic acid (pyridin-4-ylmethyl) amide, hydrochloride salt]
50% cytotoxicity reached in concentration range tested [1]: neither 50% inhibition nor 50% cytotoxicity were reached
patients with adverse events such that study drug was terminated (COVID-19 pneumonia; opaganib arm, one placebo patient): Two
patients with serious adverse events (SAEs) vs. placebo arm (COVID-19 pneumonia; top-line results): fewer patients suffered from serious adverse events (SAEs)
safety vs. placebo arm (COVID-19 pneumonia; top-line results): safe, with no material safety differences
50% inhibition reached in concentration range tested ([2]; 0.05 to 11.25 μg/ml): neither 50% inhibition nor 50% cytotoxicity were reached
concentration at which complete inhibition of infectious virus production starts ([2]; 3 days incubation): 1 µg/mL
infectious virus production ([2]; opaganib 0.05 to 11.25 μg/ml, 3 days incubation): dose-dependent reduction in infectious virus production
Clinical Assessment (COVID-19 infection; Patient 1 (14 d), started as severe on maximal OptiFlow 3 Apr. 2020, one negative viral swab as of 22 April): 3 Apr. 2020; RA by 16 April.
Clinical Assessment (COVID-19 infection; Patient 2 (14 d), started as severe+, planning for intubation 7 Apr. 2020, RA by 20 Apr. 2020, D/C on 22 Apr. 2020): 7 Apr. 2020; RA by 20
Clinical Assessment (COVID-19 infection; Patient 3 (7 d), moderate-severe, on OptiFlow 13 Apr. 2020, RA by 17 Apr. 2020, D/C on 19 Apr. 2020): 13 Apr. 2020; RA by
Clinical Assessment (COVID-19 infection; Patient 4 (11 d), started severe+ 70% OptiFlow on 13 Apr. 2020): RA on 22 Apr. 2020
Clinical Assessment (COVID-19 infection; Patient 5 (2 d), started moderate on 13 Apr. 2020, nasal cannula, after one day on opaganib, D/C on 14 Apr. 2020 on RA): Dramatic improvement
C-Reactive Protein (CRP) change (COVID-19 infection; all six patients): reduction in C-Reactive Protein (CRP)
clinical improvement, including reduced supplemental oxygenation and higher lymphocyte counts (COVID-19 infection; all six patients): measurable clinical improvement
cases requiring mechanical ventilation (COVID-19 infection; compared with 33% of controls): none of the cases required mechanical ventilation
lymphocyte count increase vs. matched controls (COVID-19 infection; five patients vs same-sex, same-severity control group): significantly faster increase in lymphocyte count
patients back to breathing room air (COVID-19 infection; of 6 treated patients): 5 patients
patients discharged from hospital (COVID-19 infection; of 6 treated patients): 3 patients
moderate to-severe patients improved significantly (COVID-19 infection; of seven compassionate use patients, patient #7 had only 1 day of treatment): 6 patients
